Laboratory results reported in publication PMC11790956, “A microscale thermophoresis-based enzymatic RNA methyltransferase assay enables the discovery of DNMT2 inhibitors” (Communications Chemistry, 2025).

How the values were obtained:
[1] = target: AptaFluor SAH aptamer; experiment: Commercial AptaFluor SAH assay kit (HTRF) ligand titration; type: binding; conditions: read-out: affinity KD
Method: To assess the suitability for sensing SAH in a steady-state enzymatic assay, we examined statistical Z-values at 50 nM SAH (which correspond to 5% SAM-to-SAH substrate conversion from 1 µM SAM substrate in a common RNA MTase reaction). By this, we determined an MST-based Z-value of 0.84 (FRET assay: Z = 0.57) highlighting the suitability of this framework for high-throughput screening (HTS) assay setups (Fig. 1E). For these reasons, we prefer the usage of the MST-based assay which the following chapter will focus on, but it is noteworthy that plate reader-based FRET assays were also found equally functional. Furthermore, we performed comparative assays with the commercial AptaFluor assay kit, which gave similar results to our assay in all respects (SI Fig. 2): Z-factor at 50 nM SAH = 0.84; SAH resp.
Radiometric DNMT2 assays were carried out as described previously. HTRF MTase assays with the commercial AptaFluor SAH assay kit (BellBrook Labs) were performed as described in the manufacturer’s manual in 96-well format.
SI Figure 1 . Displacement of FTAD by literature-known inhibitors in a microscale thermophoresis displacement a s s a y. Data is given as mean ± SD of triplicates. (A) MST traces of SHO108. […]
SI Figure 2. […] (B) D o se -response curves of the AptaFluor assay in the presence of the SAH or SAM ligand by plate reader-ba s e d HT R F ass ays (λex=33 2 nm; λem=620/665 nm). […]

[2] = target: aptaSAH1&2 SAH split aptamer; experiment: Split aptamer (aptaSAH1&2) plate reader-based FRET ligand titration; type: binding, D. aromatica; conditions: for Kd: FRET, aptaSAH1&2 each 50 nM, λex = 485 nm, λem = 600 nm, read-out: apparent KD
Excerpt: In our study, we followed the aim of developing a fluorescent split aptamer SAH biosensor (Fig. 1A) from the natural non-split metH RNA aptamer. The concept of fluorescent split aptamers relies on a series of two or more independent fluorescently labeled aptamer oligonucleotides, able to assemble only in the presence of a specific target ligand. In a FRET-based approach, two fragments carry a FRET-pair of communicating fluorescent dyes, such that, upon excitation of the donor dye, the acceptor dye will only emit fluorescence if the dyes are in spatial proximity in the ligand-bound complex, thus indicating the presence of the analyte, i.e., SAH[23]. […] Accordingly, we evaluated two split aptamer fragments labeled with fluorescein (FAM) and tetramethylrhodamin (TAMRA) as a FRET-capable dye pair: aptaSAH1 and aptaSAH2 (Fig. 1B).
(§1) To establish our experimental setup, we mixed both aptamer fragment oligonucleotides at equimolar concentrations (final: 50 nM) and titrated series of SAH resp. SAM dilutions to this prototypical SAH biosensor. […] Furthermore, MST assays require only 10 µL of sample volume per capillary compared to 30 µL per well in a 96-well plate supporting high-throughput applications in material consumption.
MTase reaction mixtures were prepared analogously to the MST-based detection approach but on a 30 µL scale (minimum volume for 96-well half-area plates). Reactions were quenched at a given time by 0.3% SDS and supplemented with 3 µL of the 10× aptamer-containing detection master mix. Reaction mixtures were transferred in technical triplicates to black Greiner 96-well half-area plate and incubated for 1 h at room temperature. Afterward, plates were measured using a Tecan Spark 10 M plate reader equipped with a monochromator setup (λex = 485 nm; λem = 600 nm). Statistical analysis and plotting were performed in GraphPad Prism 7.01.

[3] = target: aptaSAH1&2 SAH split aptamer; experiment: Split aptamer (aptaSAH1&2) MST ligand titration; type: binding, D. aromatica; conditions: MST, aptaSAH1&2 each 50 nM
Method: as §1
To evaluate the effect of inhibitors on DNMT2 activity, we used two known inhibitors, SHO108 and SH112. These SAH derivatives were selected based on their documented efficacy for DNMT2[8],[26].
For MTase assay detection by MST, enzyme reaction mixtures with a total volume of 10 µL per single treatment condition were prepared and incubated for the desired reaction times. Inhibitors were added from corresponding DMSO stocks to a final DMSO concentration of max. 5%. Afterward, reactions were quenched at a given reaction time by the addition of 1 µL sodium dodecyl sulfate (SDS, solution, 3% in water) per 10 µL reaction mixture and mixed well by pipetting. Subsequently, 1 µL of a 10× aptamer-containing detection master mix (200 mM Tris, pH 8.5, 200 mM MgCl2, 3 M NaCl, 10 mM urea, 0.2% Brij, 500 nM aptaSAH1, 500 nM aptaSAH2) was added to the quenched MTase reaction and incubated for 1 h at room temperature. Reaction mixtures were loaded directly to MST capillaries without further purification or sample processing.
MST experiments were carried out in at least technical triplicates using a Monolith NT.115 instrument (NanoTemper Technologies) using Monolith standard capillaries and the blue excitation laser setup. The instrument was calibrated according to the manufacturer’s instructions. General settings were applied for all MST experiments as follows: manual temperature control: 25 °C, fluorescence measurement before MST: 4 s, MST (IR laser) on: 20 s, fluorescence after MST: 2 s, delay: 25 s. The laser power was adjusted to optimize the signal-to-noise ratio and the fluorescence signal. LED and MST power settings were chosen individually for each sample by adjusting the LED power to yield fluorescence signals of at least 300 units (blue laser) or 3000 units (red laser) and the MST power to achieve an appropriate thermophoretic response (standard setting: medium MST power). MST measurements were analyzed using the NT analysis software (version 1.5.41) and exported for statistical analysis and plotting in GraphPad Prism 7.01.

[4] = test system: metH aptamer; parameters: method as in PMID 20864509; conditions: cited from earlier work
[5] = target: T1, METTL3/14 (Homo sapiens, UniProt Q86U44); experiment: METTL3/14 enzymatic split aptamer MST assay; type: biochemical; conditions: 10 nM MTase, 120 nM RNA substrate, variable SAM; read-out: Michaelis-Menten constant KM
T1 construct: purchased BPS Bioscience BPS-100105
T1 sequence (Q86U44 2-580 limits assumed): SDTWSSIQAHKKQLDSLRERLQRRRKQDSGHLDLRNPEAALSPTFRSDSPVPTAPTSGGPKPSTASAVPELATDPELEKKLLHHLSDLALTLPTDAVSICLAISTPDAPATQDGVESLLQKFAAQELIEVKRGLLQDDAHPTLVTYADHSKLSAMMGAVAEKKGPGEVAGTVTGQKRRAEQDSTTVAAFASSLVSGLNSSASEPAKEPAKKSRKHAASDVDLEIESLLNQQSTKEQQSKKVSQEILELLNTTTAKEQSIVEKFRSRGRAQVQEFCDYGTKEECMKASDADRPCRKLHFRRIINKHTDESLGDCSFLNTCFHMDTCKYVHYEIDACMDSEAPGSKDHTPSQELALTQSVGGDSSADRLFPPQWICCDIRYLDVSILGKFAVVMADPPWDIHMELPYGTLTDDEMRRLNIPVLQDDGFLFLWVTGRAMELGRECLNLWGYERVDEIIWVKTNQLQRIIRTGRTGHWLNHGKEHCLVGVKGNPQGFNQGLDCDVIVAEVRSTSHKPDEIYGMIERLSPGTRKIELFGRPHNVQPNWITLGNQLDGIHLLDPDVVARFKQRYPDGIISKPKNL
T1 sequence (Q9HCE5 2-456 partner limits assumed): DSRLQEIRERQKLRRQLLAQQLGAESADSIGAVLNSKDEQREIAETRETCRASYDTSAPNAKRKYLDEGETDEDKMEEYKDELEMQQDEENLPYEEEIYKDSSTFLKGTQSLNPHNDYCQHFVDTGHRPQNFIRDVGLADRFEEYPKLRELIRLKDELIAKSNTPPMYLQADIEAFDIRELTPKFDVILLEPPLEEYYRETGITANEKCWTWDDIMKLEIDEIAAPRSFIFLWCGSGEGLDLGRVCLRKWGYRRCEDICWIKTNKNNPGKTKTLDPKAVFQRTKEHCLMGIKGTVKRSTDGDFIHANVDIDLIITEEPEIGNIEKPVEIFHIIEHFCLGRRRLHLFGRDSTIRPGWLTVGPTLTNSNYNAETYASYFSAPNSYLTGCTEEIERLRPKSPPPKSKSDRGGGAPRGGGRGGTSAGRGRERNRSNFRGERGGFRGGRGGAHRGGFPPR
Method: Specifically, we studied the m^6A MTase METTL3/14 and the m^7G MTase S. aureus TrmD.
For MTase assay detection by MST, enzyme reaction mixtures with a total volume of 10 µL per single treatment condition were prepared and incubated for the desired reaction times. Inhibitors were added from corresponding DMSO stocks to a final DMSO concentration of max. […] Afterward, reactions were quenched at a given reaction time by the addition of 1 µL sodium dodecyl sulfate (SDS, solution, 3% in water) per 10 µL reaction mixture and mixed well by pipetting. […]
MST experiments were carried out in at least technical triplicates using a Monolith NT.115 instrument (NanoTemper Technologies) using Monolith standard capillaries and the blue excitation laser setup. […] General settings were applied for all MST experiments as follows: manual temperature control: 25 °C, fluorescence measurement before MST: 4 s, MST (IR laser) on: 20 s, fluorescence after MST: 2 s, delay: 25 s. The laser power was adjusted to optimize the signal-to-noise ratio and the fluorescence signal. LED and MST power settings were chosen individually for each sample by adjusting the LED power to yield fluorescence signals of at least 300 units (blue laser) or 3000 units (red laser) and the MST power to achieve an appropriate thermophoretic response (standard setting: medium MST power). […]

[6] = target: T2, S. aureus TrmD (Staphylococcus aureus, UniProt Q2FZ43); experiment: S. aureus TrmD enzymatic split aptamer MST assay; type: biochemical
T2 construct: made in house
T2 sequence (Q2FZ43 1-245): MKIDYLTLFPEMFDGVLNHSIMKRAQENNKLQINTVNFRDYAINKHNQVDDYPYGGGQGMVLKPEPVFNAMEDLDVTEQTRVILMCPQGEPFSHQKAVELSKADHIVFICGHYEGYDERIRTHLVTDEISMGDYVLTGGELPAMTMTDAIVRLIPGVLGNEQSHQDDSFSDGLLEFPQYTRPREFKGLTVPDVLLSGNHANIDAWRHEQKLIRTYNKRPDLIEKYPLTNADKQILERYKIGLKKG
Method: DNMT2 & S. aureus TrmD: 100 mM Tris-HCl, pH 8, 100 mM NH4OAc, 0.1 mM EDTA, 10 mM MgCl2, 10 mM DTT. For TrmD: 50 nM TrmD, 2 µM SAM, 1 µM tRNA^Leu.
For MTase assay detection by MST, enzyme reaction mixtures with a total volume of 10 µL per single treatment condition were prepared and incubated for the desired reaction times. Inhibitors were added from corresponding DMSO stocks to a final DMSO concentration of max. 5%. Afterward, reactions were quenched at a given reaction time by the addition of 1 µL sodium dodecyl sulfate (SDS, solution, 3% in water) per 10 µL reaction mixture and mixed well by pipetting. Subsequently, 1 µL of a 10× aptamer-containing detection master mix (200 mM Tris, pH 8.5, 200 mM MgCl2, 3 M NaCl, 10 mM urea, 0.2% Brij, 500 nM aptaSAH1, 500 nM aptaSAH2) was added to the quenched MTase reaction and incubated for 1 h at room temperature. […]
MST experiments were carried out in at least technical triplicates using a Monolith NT.115 instrument (NanoTemper Technologies) using Monolith standard capillaries and the blue excitation laser setup. […] General settings were applied for all MST experiments as follows: manual temperature control: 25 °C, fluorescence measurement before MST: 4 s, MST (IR laser) on: 20 s, fluorescence after MST: 2 s, delay: 25 s. The laser power was adjusted to optimize the signal-to-noise ratio and the fluorescence signal. […]

[7] = test system: TrmD; conditions: read-out: reported IC50; cited from earlier work

For `Nc1ncnc2c1ncn2[C@@H]1O[C@H](CSCC[C@H](N)C(=O)O)[C@@H](O)[C@H]1O` [SAH, S-adenosylhomocysteine], the Kd [1] was 0.026 µM, the Kd [2] was 0.018 µM and the “SAH over SAM selectivity” value ([2]; from FRET apparent KD values) was 300 fold. For the same compound, the Kd [3] was 0.024 µM, the “selectivity over other nucleosides (including SAM)” value [4] was “at least 100 fold” and the Kd ([4]; isothermal titration calorimetry, read-out: apparent dissociation constant KD) was roughly 0.02 µM.
Compound `C[S+](CC[C@H](N)C(=O)[O-])C[C@H]1O[C@@H](n2cnc3c(N)ncnc32)[C@H](O)[C@@H]1O` (stereo partly drawn) [SAM, S-adenosylmethionine] has a Kd [1] of 5.7 µM, a Kd [2] of 5.3 µM and a Kd [3] of 2.5 µM. It also gave a Km [5] of 0.106 µM.
For `O=c1nc[nH]c2scc(-c3ccccc3)c12` [phenylthieno-pyrimidinone, 5-phenylthieno[2,3-d]pyrimidin-4(1H)-one], the IC50 [6] is given as 8.45 µM and the IC50 [7] is given as 11 µM.
